The text below walks through data of ChEMBL document CHEMBL1201862, “PubChem BioAssay data set” (2004).

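48-hour exposure; five concentrations; linearly interpolated endpoints. The concentration for 50% growth inhibition is given as GI50.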 Calls of active or inactive are those of the source. No stated cut-off is given here; in the data, active = GI50 up to about 1.1 µM and inactive = higher.

Common to all, as to assay: DTP human tumour cell line panel, 48 h
In experiment [1] the test system is CCRF-CEM.
Experiment [2] relates to COLO 205.
The test system of experiment [3] is T47D.
For experiment [4], the system named is SR.
Experiment [5] has as its system HL-60.
Experiment [6] has as its system SNB-19.
Experiment [7] deals with SK-OV-3.
For experiment [8], the system named is SW-620.
Experiment [9] concerns EKVX.
Experiment [10] concerns DU-145.
Experiment [11] concerns RPMI-8226.
The subject of experiment [12] is MDA-MB-435.
Experiment [13] relates to SN12C.
Experiment [14] concerns SK-MEL-2.
Experiment [15] concerns OVCAR-5.
The test system of experiment [16] is UO-31.
For experiment [17], the system named is NCI/ADR-RES.
In experiment [18] the test system is MCF7.
Experiment [19] relates to ACHN.
The subject of experiment [20] is NCI-H226.

A word on the GI50: it is the concentration at which growth is held to half of that of the control.

Regarding `CC(=O)NC1C(OCc2ccccc2)OC(CO)C(O)C1OC(C)C(=O)NC(C(=O)NC(CCC(=O)Nc1ccc2c(c1)CN1C(=O)c3ccccc3C1=N2)C(N)=O)C(C)C` (centres undefined), the GI50 in [1], in [2], in experiment [3], in experiment [4], in [5] and in [6] was > 100 µM (inactive) throughout. The GI50 in [7], in [8], in experiment [9], in experiment [10], in [11] and in [12] was > 100 µM (inactive) in each case. Also, the GI50 in [13], in [14], in [15], in [16], in experiment [17] and in experiment [18] was > 100 µM (inactive) in each case. Also, in experiment [19], the GI50 is > 100 µM (inactive).
With `COc1cc2c(c(OC)c1OC)-c1ccc(SC)c(=O)cc1[C@@H](O)CC2`, the GI50 in experiment [1] is 0.00031 µM (active); in experiment [2] it was 0.000408 µM (active); in [3], > 1 µM (active); in experiment [4] it was 0.00258 µM (active); in [5] it was 0.000269 µM (active); in experiment [6], 0.00104 µM (active). The GI50 in experiment [7] was 0.000392 µM (active); in experiment [8], 0.000333 µM (active); in [9], 0.000748 µM (active); in experiment [10], 0.000665 µM (active); in experiment [12], 0.000122 µM (active); in [13] it was 0.00265 µM (active). In addition, the GI50 in experiment [14] is 0.00367 µM (active); in [15], 0.0069 µM (active); in [16], 0.0208 µM (active); in experiment [17], 0.00253 µM (active); in experiment [20] it was 0.000703 µM (active); in experiment [18], 0.000386 µM (active). For the same compound, the GI50 in experiment [19] is 0.0011 µM (active).
Take `CC(=O)O[C@H]1CCn2c3c(c(C)c21)C(=O)C(N1CC1)=C(C)C3=O`: the GI50 in experiment [1] is > 10 µM (inactive); in experiment [2], 6.12 µM (inactive); in experiment [3], > 10 µM (inactive); in [4], > 10 µM (inactive); in experiment [5] it was > 10 µM (inactive); in experiment [6] it was > 10 µM (inactive). The GI50 is > 10 µM (inactive) in [7]; > 10 µM (inactive) in [8]; > 10 µM (inactive) in experiment [9]; 4.21 µM (inactive) in experiment [10]; > 10 µM (inactive) in experiment [11]; > 10 µM (inactive) in experiment [12]. Also, the GI50 in [13] was 7.43 µM (inactive); in [14], > 10 µM (inactive); in experiment [15] it was > 10 µM (inactive); in [17], > 10 µM (inactive); in [20], > 10 µM (inactive); in experiment [18], 5.51 µM (inactive). Further, the GI50 in [19] was > 10 µM (inactive).
Consider `C/C(=N\NC(=S)NC(C)(C)C)c1ccccn1`, for which the GI50 was < 0.01 µM (active) in [1]; < 0.01 µM (active) in experiment [2]; < 0.01 µM (active) in experiment [3]; < 0.01 µM (active) in experiment [4]; < 0.01 µM (active) in experiment [5]; 4.5 µM (inactive) in experiment [6]. The GI50 in experiment [7] was 0.305 µM (active); in experiment [8], < 0.01 µM (active); in [10] it was 1.69 µM (inactive); in experiment [11], < 0.01 µM (active); in experiment [12] it was 1.52 µM (inactive); in experiment [13], 0.295 µM (active). Also, the GI50 in experiment [14] was 0.408 µM (active); in [16], 0.189 µM (active); in experiment [17] it was < 0.01 µM (active); in [20] it was 0.0675 µM (active); in [18], < 0.01 µM (active); in experiment [19] it was < 0.01 µM (active).
Take `Cc1cn([C@@H]2C[C@H]2CO)c(=O)[nH]c1=O`: the GI50 in experiment [1], in [2], in [3], in experiment [4], in [5] and in [6] was > 100 µM (inactive) each time. For the same compound, the GI50 in experiment [8], in experiment [9], in [10], in [11], in experiment [12] and in experiment [13] was > 100 µM (inactive) throughout. For the same compound, the GI50 in experiment [14] was > 100 µM (inactive); in [15], > 100 µM (inactive); in [16] it was 80.4 µM (inactive); in experiment [17], > 100 µM (inactive); in experiment [20] it was > 100 µM (inactive); in [18], > 100 µM (inactive). Besides, the GI50 in [19] was > 100 µM (inactive).
For the compound `Fc1ccc2nc3n(c2c1)C(c1c(F)cccc1F)SC3` (centres undefined), the GI50 in experiment [2] was 45.2 µM (inactive); in [3], 40.6 µM (inactive); in [4], 18.4 µM (inactive); in experiment [5], 17.7 µM (inactive); in [6], > 100 µM (inactive); in experiment [7] it was 54.8 µM (inactive). Also, the GI50 was 49.5 µM (inactive) in experiment [8]; > 100 µM (inactive) in experiment [10]; 60.4 µM (inactive) in experiment [11]; 40.5 µM (inactive) in experiment [12]; 77.4 µM (inactive) in experiment [13]; 96.8 µM (inactive) in [14]. For the same compound, the GI50 is 8.69 µM (inactive) in [15]; 30.9 µM (inactive) in experiment [16]; 31.6 µM (inactive) in experiment [17]; > 100 µM (inactive) in experiment [20]; 39.9 µM (inactive) in [18]; 67.9 µM (inactive) in [19].
Consider `C[N+](C)(C)c1ncnc2c1ncn2C1CCCCO1` (centres undefined), for which the GI50 in experiment [1], in experiment [2], in experiment [3], in experiment [4], in experiment [5] and in experiment [6] was > 100 µM (inactive) in each case. The GI50 in experiment [7], in [8], in [9], in experiment [10], in experiment [11] and in experiment [12] was > 100 µM (inactive) throughout. In addition, the GI50 in [13], in experiment [14], in [15], in experiment [16], in experiment [17] and in experiment [18] was > 100 µM (inactive) each time. In experiment [19], the GI50 is > 100 µM (inactive).
In the case of `CN1CN(c2ccccc2)C2(CCN(CCC3COc4ccccc4O3)CC2)C1=O` (centres undefined), the GI50 was 17.9 µM (inactive) in experiment [1]; 5.6 µM (inactive) in experiment [2]; 4.65 µM (inactive) in [3]; 20.9 µM (inactive) in experiment [4]; 19.6 µM (inactive) in [5]; 19.9 µM (inactive) in experiment [6]. The GI50 in experiment [7] was 26.6 µM (inactive); in experiment [8], 22 µM (inactive); in [9], 10.3 µM (inactive); in experiment [10], 14.9 µM (inactive); in [11], 17.8 µM (inactive); in experiment [12], 24.2 µM (inactive). For the same compound, the GI50 in [13] is 27.7 µM (inactive); in [15] it was 18.6 µM (inactive); in experiment [16] it was 13.5 µM (inactive); in [17] it was 19.7 µM (inactive); in [20], 27.9 µM (inactive); in experiment [18], 5.27 µM (inactive). Moreover, in [19], the GI50 was 18.1 µM (inactive).
Turning to `CCOC(=O)CC/C(C)=N\n1c(Cc2ccc(Cl)cc2)n[nH]c1=O`, the GI50 in experiment [3], in experiment [4], in experiment [5], in experiment [6], in experiment [8] and in experiment [10] was > 100 µM (inactive) throughout. Moreover, the GI50 in experiment [11] is > 100 µM (inactive); in experiment [12] it was > 100 µM (inactive); in experiment [13], > 100 µM (inactive); in [14], > 100 µM (inactive); in [15] it was 14.3 µM (inactive); in experiment [16] it was > 100 µM (inactive). The GI50 in experiment [17], in experiment [20], in experiment [18] and in experiment [19] was > 100 µM (inactive) each time.
With `CCOC(=O)Nc1ccc(S(=O)(=O)Nn2cnnc2)cc1`, the GI50 in experiment [1] is 23.9 µM (inactive); in experiment [2] it was 39.9 µM (inactive); in experiment [3], > 100 µM (inactive); in experiment [4], 23.9 µM (inactive); in [5] it was 38 µM (inactive); in experiment [6], > 100 µM (inactive). Further, the GI50 was 62.7 µM (inactive) in [7]; 33.3 µM (inactive) in experiment [8]; > 100 µM (inactive) in experiment [9]; > 100 µM (inactive) in [10]; 22.6 µM (inactive) in [11]; 16.4 µM (inactive) in [12]. Moreover, the GI50 in experiment [13] is 53.1 µM (inactive); in [14], 72.6 µM (inactive); in experiment [15] it was > 100 µM (inactive); in [16] it was 60.1 µM (inactive); in [17], 37.1 µM (inactive); in [18] it was 41.2 µM (inactive). For the same compound, the GI50 in experiment [19] was 81.3 µM (inactive).
For `CCCCCCCCCCCCCCCCOP(=O)(O)OCC(NC(C)=O)C(=O)O` (centres undefined), the GI50 in experiment [2] was > 100 µM (inactive); in [3], > 100 µM (inactive); in experiment [4] it was 73.8 µM (inactive); in [5], 43.8 µM (inactive); in experiment [6] it was 18.7 µM (inactive); in experiment [7] it was > 100 µM (inactive). The GI50 in experiment [8] was > 100 µM (inactive); in [9] it was > 100 µM (inactive); in [10], > 100 µM (inactive); in [11], 41.7 µM (inactive); in experiment [12] it was 35.4 µM (inactive); in [13], 42.6 µM (inactive). The GI50 in experiment [14] was > 100 µM (inactive); in experiment [15], > 100 µM (inactive); in experiment [16], > 100 µM (inactive); in experiment [17] it was > 100 µM (inactive); in experiment [20] it was 76 µM (inactive); in experiment [18], > 100 µM (inactive). Besides, the GI50 in [19] was > 100 µM (inactive).
